Earlier results in PMC12123727 (BMC Cancer, 2025).

Tests used:
DLBCL = settings: patients with DLBCL, 2/19; cited from earlier work
r/r FL = settings: patients with r/r FL, cited from earlier work

Compound | ORR (DLBCL) | objective response rate (ORR) (r/r FL; 19/39) | median PFS (r/r FL)
O=C(/C=C/c1cccc(S(=O)(=O)Nc2ccccc2)c1)NO [Belinostat, belinostat] | 10.5% | – | –
O=C(CCCCCCC(=O)Nc1ccccc1)NO [Vorinostat, vorinostat] | – | 49% | 20 months
